In test [1] the test system is sweet taste. The experiment in a line: Concentration-response functions for sweet taste (Opertech Bio). The note with it: for Relative to Sucrose (mM): equivalency to sucrose on a molar basis; for Relative to Sucrose (mg/ml): equivalency to sucrose on a weight basis; for EC50: half-maximal sweet taste response. In kind it is in vivo. As to the method:
Opertech Bio (Philadelphia, Pa.) performed a quantitative characterization of the concentration-dependence of the taste properties of the purified his-tagged mycodulcein (SEQ ID NO:21) obtained from E. coli as described in Example 5 and purified as described in Example 4. The sweet-taste potency and relative efficacy of mycodulcein was compared with sucrose and with other sweeteners thaumatin, rebaudioside A, and aspartame. Control standards were solutions of 200 mM sucrose, 100 mM NaCl, 0.5 mM quinine, and 10 mM citric acid. […] Each data point in the curves for mycodulcein, aspartame, thaumatin, rebaudioside A was calculated as the average across 32 replicates and averaged across 16 replicates for the sucrose curve; error bars are SEM. Points for water and sucrose controls were similarly calculated as the average across 128 and 64 replicates, respectively. Curves were fit by non-linear regression.
The concentrations that elicit half-maximal sweet taste response (EC50s, or potencies) were derived from the nonlinear regression. […] Also provided are the equivalencies to sucrose on a molar basis and on a weight basis.

Test [2] concerns sweet taste. The experiment in a line: CATA time intensity of the sweet sensation, trained panel. Type of test: in vivo, human. How it is done: Evaluation of thaumatin, sucrose, and SEQ ID NO:21 was carried out using a CATA (click all that apply) time intensity of the sweet sensation of named analytes in water at 0.045 mg/ml for proteins and 10% sucrose. Methodology: Time Intensity Technique; Data collection software: EyeQuestion, responses recorded every 2.57 seconds; Scaling Method: a 15-point sweet scale, e.g. score 5=5% sucrose, score 10=10% sucrose; Evaluation Protocol: small volume sip, tilt and spit test. There were 3-6 panelists and 2 replicates. All samples were blinded and presented with randomized 3-digit codes. Training Strategies: An intense training on sweet scale over 6 weeks on 15-point sweet scale to confidently assign sweet values. Due to unique sweet behavioral patterns, it is necessary to train time intensity principles over 3 weeks. Samples were tasted with a stopwatch to note times and help reach a consensus. # of Panelists: 3-6, # of replications: 2. All samples were blinded and presented with randomized 3-digit codes. Statistical analysis: due to the small # of panelists, a statistical analysis cannot be performed.

The mark [3] stands for this setting: non-linear regression, read-out: EC50 (molar units).

Where two headings read alike, the source gives them in different places. Residues, ends and D or L forms follow the SMILES beside them.

In the case of `COC(=O)[C@H](Cc1ccccc1)NC(=O)[C@@H](N)CC(=O)O` [aspartame] (H-Asp-Phe-OMe), in the test on sweet taste [1], the “Relative to Sucrose (mM)” value was 198 and the “Relative to Sucrose (mg/ml)” value came to 231. In addition, the EC50 in the test with sweet taste [1] (setting [3]) is 0.182 mM. In addition, in the test with sweet taste [1] (read-out: EC50), the half-maximal effective concentration (EC50) came to 53.2 µg/mL.
On to `OC[C@H]1O[C@@](CO)(O[C@H]2O[C@H](CO)[C@@H](O)[C@H](O)[C@H]2O)[C@@H](O)[C@@H]1O` [sucrose], for which the “time to approach threshold sweetness (Intensity <1)” value with sweet taste [2] (10% sucrose in water) turned out to be 162 s. In addition, in the test on sweet taste [1], the “Relative to Sucrose (mM)” value is 1 and the “Relative to Sucrose (mg/ml)” value was determined as 1. Further, the EC50 with sweet taste [1] (setting [3]) was found to be 36 mM. Moreover, the EC50 with sweet taste [1] (read-out: EC50) is 12300 µg/mL.
For the compound thaumatin, the “maximum intensity (Imax) higher than sucrose” value in the test on sweet taste [2] (15 point scale, proteins 0.045 mg/ml in water vs 10% sucrose) is “approximately 1 point”.
